Several values for one entry are separate records, joined by “and”; a condition that tells them apart may be missing. Equal values may be shown once.
Key:
TTR in human serum = TTR in human serum (Homo sapiens, UniProt P02766); test: TTR serum fluorescent probe exclusion (FPE) selectivity assay; assay type: binding; conditions: ligand 10 µM; for % TTR occupancy in human serum: FPE probe 3.6 µM, 3 h reading relative to probe alone, text mean ± s.d., table replicates; for %FPE probe fluorescence: human serum, replicates
male Sprague-Dawley rats [1] = test: Gastrointestinal (GI) transit (charcoal meal) assays; assay type: in vivo, rat; conditions: rat, in vivo
in vivo = conditions: male, Sprague Dawley, rat, sc, 16 umol/kg
[2] = rat, single SC dose 16 µmol/kg
male Sprague-Dawley rats [3] = conditions: rat, in vivo

| SMILES | % TTR occupancy in human serum (TTR in human serum) | %FPE probe fluorescence (TTR in human serum; time 0.000 h) [%] | %FPE probe fluorescence (TTR in human serum; time 0.083 h) | %FPE probe fluorescence (TTR in human serum; time 0.250 h) | %FPE probe fluorescence (TTR in human serum; time 0.500 h) | %FPE probe fluorescence (TTR in human serum; time 1.000 h) | %FPE probe fluorescence (TTR in human serum; time 1.250 h) | %FPE probe fluorescence (TTR in human serum; time 1.500 h) | %FPE probe fluorescence (TTR in human serum; time 1.750 h) | %FPE probe fluorescence (TTR in human serum; time 2.000 h) | %FPE probe fluorescence (TTR in human serum; time 2.250 h) | %FPE probe fluorescence (TTR in human serum; time 2.500 h) | %FPE probe fluorescence (TTR in human serum; time 2.750 h) | %FPE probe fluorescence (TTR in human serum; time 3.000 h) | %FPE probe fluorescence (TTR in human serum; time 3.500 h) | %FPE probe fluorescence (TTR in human serum; time 3.750 h) | %FPE probe fluorescence (TTR in human serum; time 4.000 h) | %FPE probe fluorescence (TTR in human serum; time 4.250 h) | %FPE probe fluorescence (TTR in human serum; time 4.500 h) | %FPE probe fluorescence (TTR in human serum; time 4.750 h) | also measured |
| --- | --- | --- | --- | --- | --- | --- | --- | --- | --- | --- | --- | --- | --- | --- | --- | --- | --- | --- | --- | --- | --- |
| O=C(O)c1ccc2nc(-c3cc(Cl)cc(Cl)c3)oc2c1 [Tafamidis, reference compound] | 47.45% and 46.83% and 51.34% and 50.15% | 0.000 | 1.299% and -1.005% and 0.704% and 3.155% | 4.449% and 1.397% and 6.031% and 9.730% | 5.578% and 5.344% and 9.630% and 15.940% | 17.103% and 15.634% and 16.546% and 22.347% | 23.082% and 19.584% and 22.707% and 26.257% | 27.125% and 23.274% and 25.961% and 28.688% | 32.902% and 29.136% and 30.570% and 32.212% | 35.080% and 33.047% and 36.500% and 37.379% | 40.669% and 40.161% and 39.661% and 42.469% | 46.027% and 42.493% and 42.354% and 44.462% | 50.625% and 47.468% and 47.510% and 47.875% | 53.169% and 48.662% and 49.846% and 52.554% | 60.381% and 56.275% and 57.091% and 59.281% | 61.493% and 61.080% and 58.641% and 60.288% | 65.122% and 63.511% and 61.468% and 61.493% | 66.463% and 64.406% and 63.696% and 64.254% | 68.966% and 68.075% and 65.963% and 66.999% | 72.160% and 67.655% and 67.312% and 67.678% | % TTR occupancy in human serum (TTR in human serum; listed as tafamidis): 48.9 ± 2.2%; %FPE probe fluorescence (TTR in human serum; time 5.000 h): 70.882% and 70.753% and 66.636% and 68.909%; %FPE probe fluorescence (TTR in human serum; time 5.250 h): 72.950% and 73.018% and 69.707% and 71.230%; %FPE probe fluorescence (TTR in human serum; time 5.500 h): 75.965% and 73.410% and 70.521% and 70.704%; %FPE probe fluorescence (TTR in human serum; time 5.750 h): 76.955% and 73.721% and 71.869% and 74.221%; %FPE probe fluorescence (TTR in human serum; time 6.000 h): 78.267% and 76.878% and 72.520% and 75.177% |
| COc1ccc2c3c1O[C@H]1C(=O)CC[C@@]4(O)[C@@H](C2)N(C)CC[C@]314 [Oxycodone, reference compound] | – | – | – | – | – | – | – | – | – | – | – | – | – | – | – | – | – | – | – | – | GI transit (% of vehicle) (male Sprague-Dawley rats [1]): 18.7 ± 3.0%; constipation (GI transit) (male Sprague-Dawley rats [1]): did not result in significant analgesia or constipation; GI transit (% of vehicle) (male Sprague-Dawley rats [1]; sc): 8.0 ± 2.7%; GI transit as % of vehicle group (male Sprague-Dawley rats [1]; sc): 4.72% and 11.93% and 8.19% and 6.37% and 8.96%; AUC(0-inf) (in vivo): 4.85 ± 0.676 µM·h; CL/F (in vivo): 55.3 mL/min/kg; half-life (in vivo): 46.8 ± 5.4 min; k [2]: 0.9 ± 0.12 h⁻¹; analgesia (hot plate) (male Sprague-Dawley rats [3]): did not result in significant analgesia or constipation; analgesic effect 1 hour after ICV dosing (male Sprague-Dawley rats [3]): no analgesic effect; hot plate latency (male Sprague-Dawley rats [3]; sc): 56.8 ± 3.8 s |
| Cc1n[nH]c(C)c1CCCOc1cc(C(=O)O)ccc1F [AG10, reference compound] | 97.40% and 95.62% and 96.92% and 97.81% | 0.000 | 0.700% and 0.333% and 1.346% and -0.971% | 0.446% and 0.461% and 3.649% and -0.301% | -1.954% and 0.832% and 3.724% and 2.441% | -0.363% and 4.377% and 2.966% and 3.350% | 2.954% and 2.394% and 3.246% and -1.477% | 2.170% and 0.641% and 2.641% and 0.126% | 0.743% and 3.255% and 1.620% and 2.521% | 4.231% and 0.837% and 2.557% and 0.855% | 5.793% and 2.286% and 2.057% and 0.029% | 6.054% and 2.118% and 3.144% and 0.438% | 2.727% and 2.921% and 3.595% and 1.032% | 2.597% and 4.380% and 3.077% and 2.193% | 3.724% and 3.796% and 4.505% and 2.484% | 3.879% and 3.578% and 5.075% and 1.835% | 3.514% and 5.359% and 4.237% and 1.611% | 3.887% and 3.398% and 4.915% and 2.063% | 4.733% and 4.892% and 5.145% and 3.486% | 6.115% and 5.517% and 7.470% and 4.138% | %FPE probe fluorescence (TTR in human serum; time 5.000 h): 6.088% and 5.023% and 7.566% and 3.162%; %FPE probe fluorescence (TTR in human serum; time 5.250 h): 5.909% and 5.424% and 7.406% and 4.467%; %FPE probe fluorescence (TTR in human serum; time 5.500 h): 6.587% and 5.102% and 7.881% and 3.568%; %FPE probe fluorescence (TTR in human serum; time 5.750 h): 6.453% and 4.461% and 7.648% and 5.604%; %FPE probe fluorescence (TTR in human serum; time 6.000 h): 4.737% and 6.705% and 8.837% and 3.939% |

Reference: PMC9226319, “Peripherally restricted transthyretin-based delivery system for probes and therapeutics avoiding opioid-related side effects” (Nature Communications, 2022)
